The structures appear in SMILES notation.

The test system of this assay is A. tuberculatus, about 60-70% of which contain the ΔG210 mutation. Put plainly: Field trial, Illinois USA, visual % weed control. In kind it is in vivo, Amaranthus tuberculatus. As to conditions: visually assessed 14 days after application.

Consider `COC(=O)CCNC(=O)C(C)Sc1cc(-n2c(=O)cc(C(F)(F)F)n(C)c2=O)c(F)cc1Cl` (stereo not drawn) [Tiafenacil], for which the “Control (%)” value amounted to 33% (use rate 50 g ai/ha), 30% (use rate 100 g ai/ha) and 33% (use rate 150 g ai/ha).

For the origin of these results see patent US20250344698A1, “A METHOD OF CONTROLLING WEEDS” (SYNGENTA CROP PROTECTION AG, priority 2022, published 2025).
